Reference: PMC8354230 (Journal of Virology, 2021)
Read-outs that look alike come from different tables or passages of the source.

Legend:
[1] = test system: 293FT/ACE2/TMPRSS2/DSP1-7 cells; conditions: 2 days; for cell viability: at concentrations above 40 µM; for concentration above which cytotoxicity was exhibited / CC50: WST-8; for CC50: 293FT/ACE2/TMPRSS2/DSP1-7 cells
[2] = test system: SARS-CoV-2 S protein-mediated cell-cell fusion; assay: microbe, parasite or virus in culture; type: cell-based
in vitro = conditions: human
[3] = test system: 293FT/ACE2/TMPRSS2/DSP1-7 cells; assay: Quantification of sphingolipids by LC-MS/MS in 293FT/ACE2/TMPRSS2/DSP1-7 cells; type: cell-based; conditions: for reduction in total sphingolipid levels: 40 µM, vs DMSO
[4] = cited from earlier work
ACE2 [5] = type: cell-based; conditions: 5 µM 4-HPR vs DMSO
ACE2 [6] = assay: Cell surface expression of ACE2 by flow cytometry; type: cell-based; conditions: 293FT/ACE2/TMPRSS2/DSP1-7 cells, 5 µM, compared with DMSO or 10 µM GT11
[7] = test system: 293FT/ACE2/TMPRSS2/DSP1-7 cells; assay: Cellular membrane fluidity with lipophilic pyrene probe; type: cell-based; conditions: for decrease in membrane fluidity: 2 days, compared with DMSO
[8] = test system: HEK293FT cells expressing DSP1-7 and DSP8-11; type: cell-based; conditions: 2 days treatment
[9] = test system: SARS-CoV-2 NCGM-05-2N strain; assay: microbe, parasite or virus in culture; type: cell-based
VeroE6^TMPRSS2 cells [10] = assay: Quantification of sphingolipids by LC-MS/MS in VeroE6^TMPRSS2 cells; type: cell-based; conditions: 3 days
VeroE6^TMPRSS2 cells [11] = assay: WST-8 cytotoxicity assay in VeroE6^TMPRSS2 cells; type: cell-based; conditions: 3 days; for concentration above which cytotoxicity was exhibited: WST-8
[12] = Severe acute respiratory syndrome coronavirus 2, 48 h

## O[C@H]1[C@H](O)[C@@H](O)[C@@H]2O[C@@H]2[C@@H]1O (racemic) [CBE, conduritol B epoxide]
[1]
  cell viability: unaffected
[2]
  antimembrane fusion activity: little or no antimembrane fusion activity
[2]; [12]
  EC50: > 40 µM
In vitro
  CC50: > 40 µM

## CC1=C(/C=C/C(C)=C/C=C/C(C)=C/C(=O)Nc2ccc(O)cc2)C(C)(C)CCC1 [4-HPR, N-(4-Hydroxyphenyl) retinamide]
[3]; 2.5 µM 4-HPR, 2 days
  ratio of saturated sphinganine-based lipids to total sphingolipids: ~10%
[3]; 5 µM 4-HPR, 2 days
  ratio of saturated sphinganine-based lipids to total sphingolipids: ~20%
[4]
  toxicity profile in clinical trials and long-term treatments: low-toxicity profile
[4]; oral powder, 1,500 mg/m^2 per day, patients with relapsed/refractory neuroblastoma
  day 6 mean peak plasma concentration: 21 µM
ACE2 [5]
  ACE2 localization in the membrane microdomain: no dramatic difference
[1]
  concentration above which cytotoxicity was exhibited: above 10 µM
ACE2 [6]
  ACE2 expression levels on cell surface: No significant differences
[7]; 2.5 µM
  decrease in membrane fluidity: ~20%
[7]; 5 µM
  decrease in membrane fluidity: about 50%
[8]
  luciferase activity in cells harboring preformed DSP1-7/DSP8-11 reporter complex: not affected
[9]
  antiviral activity: no antiviral activity
[9]; Severe acute respiratory syndrome coronavirus 2, VeroE6/TMPRSS2
  EC50: 4.4 µM
VeroE6^TMPRSS2 cells [10]; 1.3 µM
  ratio of saturated sphinganine-based lipids to total sphingolipids: 12%
VeroE6^TMPRSS2 cells [10]; 2.5 µM
  ratio of saturated sphinganine-based lipids to total sphingolipids: 17%
VeroE6^TMPRSS2 cells [10]; 5 µM
  ratio of saturated sphinganine-based lipids to total sphingolipids: 25%
VeroE6^TMPRSS2 cells [11]
  concentration above which cytotoxicity was exhibited: above 10 µM
[2]
  inhibition of DSP activity (cell-cell fusion): more than 50%
[2]; [12]
  EC50: 4.1 µM
In vitro
  CC50: 11.5 µM

## CN(C)CCC=C1c2ccccc2CCc2ccccc21 [Amitriptyline]
[1]
  cell viability: unaffected
[2]
  antimembrane fusion activity: little or no antimembrane fusion activity
[2]; [12]
  EC50: > 40 µM
In vitro
  CC50: > 40 µM

## CCCCCCCCCCCCC/C=C/[C@@H](O)[C@H](CO)NC(=O)CCCCCCC [C8-Cer, N-Octanoyl-d-erythro-sphingosine]
[3]; 10 µM C8-Cer with 5 µM 4-HPR, compared to 4-HPR treated cells
  decrease in ratio of saturated sphinganine-based lipids to total sphingolipids: approximately 74%
[2]
  cell-cell fusion efficiencies: no significant differences

## COc1ccc(/C=C/C(=O)c2c(-c3ccccc3)c3ccccc3[nH]c2=O)cc1 [Ceranib-2]
[1]
  CC50: 26.9 µM
  concentration above which cytotoxicity was exhibited: above 2.5 µM
[2]
  EC50: > 1.3 µM
  antimembrane fusion activity: little or no antimembrane fusion activity

## CCCCCCCCc1ccc(CCC(N)(CO)CO)cc1 [FTY720]
[1]
  concentration above which cytotoxicity was exhibited: above 10 µM
[2]
  antimembrane fusion activity: little or no antimembrane fusion activity
[2]; [12]
  EC50: > 5 µM
In vitro
  CC50: 12.5 µM

## CCCC[C@@H](C)[C@@H](OC(=O)C[C@@H](CC(=O)O)C(=O)O)[C@H](C[C@@H](C)C[C@H](O)CCCC[C@@H](O)C[C@H](O)[C@H](C)N)OC(=O)C[C@@H](CC(=O)O)C(=O)O [Fumonisin B1]
[3]; 2 days
  reduction in total sphingolipid levels: ~79%
[1]
  CC50: > 40 µM
  cell viability: unaffected
[2]
  EC50: > 40 µM
  antimembrane fusion activity: little or no antimembrane fusion activity

## CCCCCCCCCCCCCC1=C([C@H](O)[C@@H](CO)NC(=O)CCCCCCC)C1 [GT11]
[3]; 10 µM GT11, 2 days
  ratio of saturated sphinganine-based lipids to total sphingolipids: ~10%
[1]
  CC50: 20.3 µM
  concentration above which cytotoxicity was exhibited: above 20 µM
[7]; 10 µM GT11 compared with 2.5 µM 4-HPR
  membrane fluidity: not significantly different
[9]
  antiviral activity: no antiviral activity
VeroE6^TMPRSS2 cells [11]
  concentration above which cytotoxicity was exhibited: above 10 µM
[2]
  EC50: > 10 µM
  antimembrane fusion activity: little or no antimembrane fusion activity

## O=C(/C=C/c1ccc(/C=C/C(=O)Nc2ccc(C3=NCCN3)cc2)cc1)Nc1ccc(C2=NCCN2)cc1 [GW4869]
[1]
  CC50: > 40 µM
  concentration above which cytotoxicity was exhibited: above 20 µM
[2]
  EC50: > 10 µM
  antimembrane fusion activity: little or no antimembrane fusion activity

## CCCCCCCCCCCC(=O)N[C@@H](CO)C[C@H](O)c1ccccc1 [HPA12]
[1]
  CC50: > 40 µM
  cell viability: unaffected
[2]
  EC50: > 40 µM
  antimembrane fusion activity: little or no antimembrane fusion activity

## CCCCCCC(=O)CCCCCC/C=C/C[C@@H](O)[C@H](O)[C@@](N)(CO)C(=O)O [Myriocin]
[3]; 2 days
  reduction in total sphingolipid levels: approximately 65%
[1]
  cell viability: unaffected
[9]
  antiviral activity: did not exhibit antiviral activity
VeroE6^TMPRSS2 cells [10]; vs DMSO
  reduction in total sphingolipid levels: approximately 50%
VeroE6^TMPRSS2 cells [11]; at a concentration above 20 µM
  effect on cell viability: no effect
[2]
  antimembrane fusion activity: little or no antimembrane fusion activity
[2]; [12]
  EC50: > 40 µM
In vitro
  CC50: > 40 µM

## Oc1ccc(Nc2nc(-c3ccc(Cl)cc3)cs2)cc1 [SKI-II]
[1]
  CC50: > 40 µM
  concentration above which cytotoxicity was exhibited: above 20 µM
[2]
  EC50: > 10 µM
  antimembrane fusion activity: little or no antimembrane fusion activity

## CCCCCCCCCCCCCCCC(=O)NC(CN1CCOCC1)C(O)c1ccccc1 (stereo not drawn) [erythro-PPMP]
[3]; 10 µM, compared to DMSO-treated cells
  levels of GlcCer: decreased
[1]
  CC50: 35.8 µM
[2]
  EC50: 9.1 µM

## CCCCCCCCCCCCCCCC(=O)NC(CN1CCOCC1)C(O)c1ccccc1 (stereo not drawn) [threo-PPMP, 1-phenyl-2-palmitoylamino-3-morpholino-1-propanol]
[1]
  concentration above which cytotoxicity was exhibited: above 20 µM
[8]
  luciferase activity in cells harboring preformed DSP1-7/DSP8-11 reporter complex: not affected
[9]
  antiviral activity: did not exhibit antiviral activity
VeroE6^TMPRSS2 cells [10]; compared to DMSO
  reduction in total GlcCer levels: approximately 60%
VeroE6^TMPRSS2 cells [11]
  concentration above which cytotoxicity was exhibited: above 20 µM
[2]
  inhibition of DSP activity (cell-cell fusion): more than 50%
[2]; [12]
  EC50: 8.7 µM
In vitro
  CC50: 25.6 µM
